Results from patent US20150323548A1, “METHODS OF MONITORING THE MODULATION OF THE KINASE ACTIVITY OF FIBROBLAST GROWTH FACTOR RECEPTOR AND USES OF SAID METHODS” (Novartis AG, priority 2008, published 2015).
Where two headings read alike, the source gives them in different places.

What was measured:
[1] = system: phosphorylated and activated FGFR; assay: Immunohistochemistry of pFGFR in melanoma tumor biopsy; conditions: melanoma patient, 400 mg, cycle 1 Day 15
FGF23 [2] = conditions: for mean plasma FGF23 increase over baseline: melanoma patients; for Increase of FGF23 levels over basal levels (up to): 400 mg daily
Method: Blood sampling was performed at the indicated day and cycle. FGF23 levels were measured in plasma. The values given for C1D1 are the baseline values.
(§1) Methods: Patients were treated orally with 200, 300, 400 or 500 mg/day on a once daily continuous dose schedule. […] Plasma samples from 43 patients were collected. […] Plasma FGF23 was evaluated by ELISA

[3] = system: FRS2 tyrosine phosphorylation (read-out for FGFR activity); assay: Ex vivo FRS2 tyrosine phosphorylation in RT112 tumor xenografts in rats (Western blot); parameters: species or system rat; conditions: single oral 10, 25 or 50 mg/kg; tumors dissected 3 h post-treatment
Method: FIG. 12 is a photograph showing the ex vivo analysis of RT112 tumor xenografts. Tumors were dissected 3 h after compound administration. Tumor tissue was lysed and FRS2 tyrosine phosphorylation levels were analysed by western blot using an antibody from Cell Signaling (#3864) that detects FRS2 when phosphorylated on Tyr196. As a loading control, membrane was probed with an antibody from Sigma (#T4026) that detects b-tubulin.
Compound Formulation and Animal Treatment. […] The application volumes were 5 ml/kg.
Ex vivo analysis of RT112 tumor xenografts: RT112 bladder cancer cells express high levels of FGFR3, the activity of which can be monitored in these cells by measuring changes in FRS2 tyrosine phosphorylation, a substrate of the FGFRs. The tumor material was pulverized using a swing mill (RETSCH, either MM2 or MM200). Aliquots of tumor powder (50 mg) were lysed in ice-chilled lysis buffer containing 50 mM Tris pH 7.5, 150 mM NaCl, 1 mM EGTA, 5 mM EDTA, 1% Triton, 2 mM NaVanadate, 1 mM PMSF and protease inhibitors cocktail Roche #11873580001). Lysates were clarified by centrifugation at 12000×g for 15 min and protein concentration was determined using the DC protein assay reagents (Bio Rad #500-0116) and a BSA standard. Total cell lysates were subjected to SDS-PAGE and proteins blotted onto PVDF membranes. […]

clinical = conditions: human, in vivo, po
Method: as §1

[4] = Phase I clinical trial in metastatic renal cell carcinoma patients: PK, toxicity, efficacy
FGF23 [5] = assay: FGF23 ELISA in serum of wistar rats; format: in vivo, rat; conditions: single oral 50 mg/kg; 24 h post administration; p<0.01
Method: Data are presented as means of n=6, ±SD.
Animals. Experiments were performed in female wistar rats furth WF/Ico
The application volumes were 5 ml/kg.
Blood samples were drawn sublingually at 24 h post-compound administration. Plasma, as well as serum samples were prepared from each blood sample.

FGF23 [6] = assay: FGF23 ELISA in plasma of mRCC patients; format: in vivo, human
FGF23 [7] = assay: FGF23 ELISA in serum of Rowett rats bearing RT112 xenografts; conditions: single oral 10, 25, 50 mg/kg; 24 hours post dosing; p<0.01
Method: FGF23 levels were monitored using the FGF23 ELISA kit from Kainos, catalogue number CY-4000, and are expressed in pg/mL. Data are presented as means of n=4, ±SD. Data were compared by one-way Anova post-hoc Dunnett's versus vehicle.
Animals. Experiments were performed in female Rowett rats Hsd:RH-Foxlrnu. These athymic Nude-Rats were obtained from Harlan (The Netherlands)
Compound Formulation and Animal Treatment. […] Vehicle consisted of acetic acid-acetate buffer (pH 4.6)/PEG300 (2:1 v/v). The application volumes were 5 ml/kg.
Blood and tissue sampling for ex vivo analysis. Blood samples were drawn sublingually at 3 h, 7 h and 24 h post-compound administration. Plasma and as serum were prepared from each blood sample. At the same time points, tumors were dissected and snap frozen in liquid nitrogen.

## CN1CCN(c2ccc3nc(-c4c(N)c5c(F)cccc5[nH]c4=O)[nH]c3c2)CC1 [TKI258]
[1]
  pFGFR in tumor biopsy (immunohistochemistry): significant pFGFR inhibition
FGF23 [2]; Patient A, 200 mg daily oral, C1D15
  FGF23: 39.8 pg/mL
FGF23 [2]; Patient A, 200 mg daily oral, C1D26
  FGF23: 24.4 pg/mL
FGF23 [2]; Patient A, 200 mg daily oral, C3D26
  FGF23: 31.8 pg/mL
FGF23 [2]; Patient A, 200 mg daily oral, C6D26
  FGF23: 21.1 pg/mL
FGF23 [2]; Patient A, 200 mg daily oral, C9D26
  FGF23: 39.6 pg/mL
FGF23 [2]; Patient B, 400 mg daily oral, C1D15
  FGF23: 94.1 pg/mL
FGF23 [2]; Patient B, 400 mg daily oral, C3D26
  FGF23: 88.5 pg/mL
FGF23 [2]; Patient B, 400 mg daily oral, C4D26
  FGF23: 141.5 pg/mL
FGF23 [2]; Patient C, 400 mg daily oral, C1D15
  FGF23: 86.5 pg/mL
FGF23 [2]; melanoma and metastatic renal cell carcinoma patients, 400 mg or 500 mg, preliminary observation
  peak of FGF23 (day in first cycle of treatment): ~15 days
FGF23 [2]; day 15 of the first treatment cycle
  mean plasma FGF23 increase over baseline: 63%
FGF23 [2]; end of the first treatment cycle
  mean plasma FGF23 increase over baseline: 68%
FGF23 [2]; one patient, 400 mg, Cycle 1 Day 15
  plasma FGF23 increase over baseline: 98%
FGF23 [2]; one patient, 400 mg, Cycle 1 Day 15 (baseline level 40 pg/ml)
  plasma FGF23 level: about 80 pg/ml
FGF23 [2]; patient B
  Increase of FGF23 levels over basal levels (up to): up to 1.96 fold
FGF23 [2]; patient B, listed as TK1258
  Increase of FGF23 levels over basal levels (up to): ≤ 1.96 fold
FGF23 [2]; patient C
  Increase of FGF23 levels over basal levels (up to): ≤ 2.1 fold
[3]
  FRS2 tyrosine phosphorylation in RT112 tumors: inhibited FRS2 tyrosine phosphorylation in a dose-dependent manner
clinical; 400 mg
  AUC(0-t): ~3000 ng·h/mL
clinical; 500 mg
  AUC(0-t): ~4100 ng·h/mL
[4]; mRCC patients
  Preliminary evidence of efficacy (other responses): 4 stable disease and 1 dramatic shrinkage/necrosis of some target lesions
[4]; one mRCC patient, C4
  minor response (change at C4): −17%
FGF23 [5]
  serum levels of FGF23 vs vehicle-treated group: statistically significant increased in serum levels of FGF23
FGF23 [6]; mRCC patients having increased FGF23
  peak of FGF23 level (day of cycle 1): ~15 days
FGF23 [6]; mRCC patients having increased FGF23, 500 mg/day
  increase of FGF23 level compared to the baseline level: 1.35-1.75
FGF23 [6]; pts from the first 500 mg/day dosing cohort
  plasma FGF23 levels: Induction of plasma FGF23 levels
FGF23 [7]
  serum levels of FGF23 vs vehicle-treated group: dose-dependent increased in serum levels of FGF23
